Our source for the IC50, inhibition and Ratio IC50 values is ChEMBL document CHEMBL4359819, “Exploiting the 1-(4-fluorobenzyl)piperazine fragment for the development of novel tyrosinase inhibitors as anti-melanogenic agents: Design, synthesis, structural insights and biological profile” (Eur J Med Chem, 2019).

The target in experiment [1] is T1, Tyrosinase (Agaricus bisporus, UniProt O42713).
T1 sequence (O42713 whole entry): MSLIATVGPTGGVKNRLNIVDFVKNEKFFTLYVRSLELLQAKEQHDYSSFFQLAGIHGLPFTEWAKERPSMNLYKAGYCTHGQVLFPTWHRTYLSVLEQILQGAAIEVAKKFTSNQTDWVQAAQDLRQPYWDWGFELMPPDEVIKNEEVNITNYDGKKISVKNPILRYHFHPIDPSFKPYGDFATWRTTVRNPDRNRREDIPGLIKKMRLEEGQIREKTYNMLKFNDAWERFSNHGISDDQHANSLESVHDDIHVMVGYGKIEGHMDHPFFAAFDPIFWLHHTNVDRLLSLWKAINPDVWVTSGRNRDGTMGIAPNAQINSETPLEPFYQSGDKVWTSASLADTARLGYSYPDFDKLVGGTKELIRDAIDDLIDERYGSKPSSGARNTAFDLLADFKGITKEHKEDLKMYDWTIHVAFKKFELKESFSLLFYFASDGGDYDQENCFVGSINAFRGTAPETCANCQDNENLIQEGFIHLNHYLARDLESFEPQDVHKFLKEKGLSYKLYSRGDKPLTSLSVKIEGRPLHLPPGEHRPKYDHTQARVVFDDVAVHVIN
Nature of the experiment: Inhibition of mushroom tyrosinase assessed as reduction in dopachrome production using L-DOPA as substrate after 5 mins by spectrophotometric analysis.

The target of experiment [2] is T2, Tyrosinase (Agaricus bisporus) (UniProt O42713).
T2 sequence (whole entry): T1 sequence (O42713 whole entry)
The experiment in a line: Competitive inhibition of mushroom tyrosinase assessed as increase in Km for substrate at 0.48 to 1.92 uM using varying levels of L-DOPA as substrate by Lineweaver-Burk plot analysis.

Experiment [3] has as its system B16-F10. Nature of the experiment: Inhibition of alpha-MSH-stimulated melanogenesis in mouse B16F10 cells assessed as melanin content at 10 uM measured after 48 hrs relative to control. As to conditions: B16-F10, 48 h. The class given is functional.
Experiment [4] deals with T2, Tyrosinase (Agaricus bisporus). Nature of the experiment: Potency index, ratio of kojic acid IC50 to compound IC50 for inhibition of mushroom tyrosinase using L-DOPA as substrate.
Experiment [5] has the same target. The experiment in a line: Competitive inhibition of mushroom tyrosinase assessed as Vmax for substrate at 0.48 to 1.92 uM using varying levels of L-DOPA as substrate by Lineweaver-Burk plot analysis.

Activity calls are given as the source filed them. The rule behind the calls is not given here.

By IC50 is commonly meant the concentration at which inhibition is half-maximal. `O=C(c1ccc(O)cc1O)N1CCN(Cc2ccc(F)cc2)CC1`: the IC50 in experiment [1] came to 1490 nM.
In the case of `O=C(c1ccc(Cl)cc1Cl)N1CCN(Cc2ccc(F)cc2)CC1`, the IC50 in experiment [1] was determined as 790 nM.
Same read-out and setting: the same measure for `O=C(c1cccc(C(F)(F)F)c1)N1CCN(Cc2ccc(F)cc2)CC1`: 8430 nM; for `O=C(c1ccccc1Cl)N1CCN(Cc2ccc(F)cc2)CC1`: 3120 nM; for `O=C(c1ccccc1C(F)(F)F)N1CCN(Cc2ccc(F)cc2)CC1`: 480 nM.
On to `Nc1cccc(C(=O)N2CCN(Cc3ccc(F)cc3)CC2)c1`, for which the IC50 in experiment [1] is 3810 nM.
Still for that read-out and setting: the result for `Nc1ccccc1C(=O)N1CCN(Cc2ccc(F)cc2)CC1` reads 10900 nM; that for `O=C(c1ccc([N+](=O)[O-])cc1)N1CCN(Cc2ccc(F)cc2)CC1`, 2050 nM.
For the molecule `Cc1ccc(C(=O)N2CCN(Cc3ccc(F)cc3)CC2)c(C)c1`, the IC50 in experiment [1] turned out to be 3430 nM.
For the molecule `COc1ccc(C(=O)N2CCN(Cc3ccc(F)cc3)CC2)c(OC)c1`, the IC50 in experiment [1] came out at 1400 nM.
Still for that read-out and setting: the result for `O=C(c1ccc(C(F)(F)F)cc1)N1CCN(Cc2ccc(F)cc2)CC1` reads 3380 nM; that for `Nc1ccc(C(=O)N2CCN(Cc3ccc(F)cc3)CC2)cc1`, 14700 nM.
Still for that read-out and setting: the result for `O=C(c1ccc(Br)cc1)N1CCN(Cc2ccc(F)cc2)CC1` reads 4610 nM; that for `O=C(c1cccc([N+](=O)[O-])c1)N1CCN(Cc2ccc(F)cc2)CC1`, 3600 nM; that for `Nc1ccc(C(=O)N2CCN(Cc3ccc(F)cc3)CC2)c(N)c1`, 3670 nM.
Still for that read-out and setting: the same measure for `O=C(c1ccccc1[N+](=O)[O-])N1CCN(Cc2ccc(F)cc2)CC1`: 870 nM.
`O=C(c1ccc(Br)cc1Br)N1CCN(Cc2ccc(F)cc2)CC1`: the IC50 in experiment [1] came out at 1050 nM.
On the same count and under the same terms, the same measure for `O=C(c1ccccc1Br)N1CCN(Cc2ccc(F)cc2)CC1`: 2030 nM; for `O=C(c1cccc(Cl)c1)N1CCN(Cc2ccc(F)cc2)CC1`: 5300 nM.
Still for that read-out and setting: the result for `O=C(c1ccc(F)cc1F)N1CCN(Cc2ccc(F)cc2)CC1` reads 1910 nM; that for `O=C(c1ccc(Cl)cc1)N1CCN(Cc2ccc(F)cc2)CC1`, 3510 nM; that for `O=C(c1cccc(Br)c1)N1CCN(Cc2ccc(F)cc2)CC1`, 2400 nM.
The same measure, in the same setting: the same measure for `O=C(c1ccc(C(F)(F)F)cc1C(F)(F)F)N1CCN(Cc2ccc(F)cc2)CC1`: 1630 nM.
The term inhibition denotes the change of the read-out against control, counted positive when it falls. As to `O=C(c1ccc([N+](=O)[O-])cc1[N+](=O)[O-])N1CCN(Cc2ccc(F)cc2)CC1`, the inhibition result in experiment [2] and in experiment [5] was “Active” throughout. The IC50 in experiment [1] amounted to 960 nM. For the same molecule, in experiment [3], the inhibition at 10 µM stood at 22.8%. Further, the Ratio IC50 in experiment [4] was found to be 20.
